This experiment addresses T1, recombinant human CDK1/Cyclin B complex (Homo sapiens, UniProt P06493).
T1 construct: made in house; host or cells: High Five insect cells (baculovirus) for CDK1/GST-cyclin B; E. coli M15 for the Rb substrate
Briefly: CDK1/Cyclin B kinase assay (FlashPlate or HTRF). It is filed as biochemical. The conditions noted are these: Rb protein substrate, Ki=IC50/(1+[S]/Km). On the procedure:
To determine inhibition of CDK1 activity, either FlashPlate™ (NEN™-Life Science Products) assay or HTRF Homogeneous Time Resolved Fluorescence assay was performed. Both types of kinase assays were carried out using recombinant human CDK1/Cyclin B complex. GST-cyclinB (GST-cycB) and CDK1 cDNA clones in baculovirus vectors were provided by Dr. W. Harper at the Baylor College of Medicine, Houston, Tex. Proteins were co-expressed in High Five™ insect cells and the complex was purified on glutathione Sepharose resin (Pharmacia, Piscataway, N.J.) as previously described (Harper, J. W. et al. Cell 1993, 75, 805-816). A 6×-Histidine tagged truncated form of retinoblastoma (Rb) protein (amino acid 386-928) was used as the substrate for the CDK1/Cyclin B assay (the expression plasmid was provided by Dr. Veronica Sullivan, Department of Molecular Virology, Roche Research Centre, Welwyn Garden City, United Kingdom). The Rb protein is a natural substrate for phosphorylation by CDK1 (see Herwig and Strauss Eur. J. Biochem. Vol. 246 (1997) pp. 581-601 and the references cited therein). The expression of the 62Kd protein was under the control of an IPTG inducible promoter in an M15 E. coli strain. Cells were lysed by sonication and purification was carried out by binding lysates at pH 8.0 to a Ni-chelated agarose column pretreated with 1 mM imidazole. The resin was then washed several times with incrementally decreasing pH buffers to pH 6.0, and eluted with 500 mM imidazole. Eluted protein was dialysed against 20 mM HEPES [4-(2-hydroxyethyl)-1-piperazineethanesulfonic acid, sodium salt] pH 7.5, 30% glycerol, 200 mM NaCl, and 1 mM DTT (dithiothreitol). Purified Rb fusion protein stocks were quantitated for protein concentration, aliquoted, and stored at −70° C.
For the FlashPlate kinase asasy, 96-well FlashPlates were coated with Rb protein at 10 μg/ml, using 100 μl per well. Plates were incubated at 4° C. overnight or at room temperature for 3 hours on a shaker. To control for nonspecific phosphorylation, one row of wells was coated with 100 μl/well coating buffer (20 mM HEPES, 0.2 M NaCl). Plates were then washed twice with wash buffer (0.01% Tween 20 in phosphate-buffered saline). Compounds to be tested (“test compounds”) were added to the wells at 5× final concentration. Reactions were initiated by immediate addition of 40 μl reaction mix (25 mM HEPES, 20 mM MgCl2, 0.002% Tween 20, 2 mM DTT, 1 μM ATP, 4 nM 33P-ATP) and a sufficient amount of enzyme to give counts that were at least 10-fold above background. Plates were incubated at room temperature on a shaker for 30 minutes. Plates were washed four times with the wash buffer, sealed, and counted on the TopCount scintillation counter (Packard Instrument Co., Downers Grove, Ill.]. The percent inhibition of Rb phosphorylation, which is a measure of the inhibition of CDK activity, was determined according to the following formula:
[formula] where “test compound” refers to the average counts per minute of the test duplicates, “nonspecific” refers to the average counts per minute when no CDK1/Cyclin B, etc., was added, and “total” refers to the average counts per minute when no compound was added. The IC50 value is the concentration of test compound that reduces by 50% the protein-kinase induced incorporation of the radiolabel under the test conditions described. The value of the inhibitor constant Ki is calculated by the following: Ki=IC50/(1+[S]/Km), where [S] is the ATP concentration and Km is Michaelis constant.
The Homogeneous Time Resolved Fluorescence (HTRF) kinase assay was carried out in 96-well polypropylene plates (BD Biosciences, Bedford, Mass.). Test compounds were first dissolved in DMSO, and then diluted in kinase assay buffer 1 (25 mM HEPES, pH7.0, 8 mM MgCl2, 1.5 mM DTT, and 162 μM ATP) with DMSO concentration at 15%. The CDK1/Cyclin B enzyme was diluted in kinase assay buffer 2 (25 mM HEPES, pH 7.0, 8 mM MgCl2, 0.003% Tween 20, 0.045% BSA, 1.5 mM DTT, and 0.338 μM Rb protein). […]

T1 sequence (P06493 whole entry): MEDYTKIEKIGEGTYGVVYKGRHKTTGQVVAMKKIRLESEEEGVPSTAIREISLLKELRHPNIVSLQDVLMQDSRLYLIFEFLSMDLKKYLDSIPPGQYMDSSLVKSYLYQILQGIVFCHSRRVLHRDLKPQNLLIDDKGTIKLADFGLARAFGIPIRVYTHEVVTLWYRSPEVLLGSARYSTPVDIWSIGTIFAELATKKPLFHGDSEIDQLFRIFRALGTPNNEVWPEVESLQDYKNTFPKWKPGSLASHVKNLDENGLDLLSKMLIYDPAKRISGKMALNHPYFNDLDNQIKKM
T1 sequence (P14635 whole entry partner): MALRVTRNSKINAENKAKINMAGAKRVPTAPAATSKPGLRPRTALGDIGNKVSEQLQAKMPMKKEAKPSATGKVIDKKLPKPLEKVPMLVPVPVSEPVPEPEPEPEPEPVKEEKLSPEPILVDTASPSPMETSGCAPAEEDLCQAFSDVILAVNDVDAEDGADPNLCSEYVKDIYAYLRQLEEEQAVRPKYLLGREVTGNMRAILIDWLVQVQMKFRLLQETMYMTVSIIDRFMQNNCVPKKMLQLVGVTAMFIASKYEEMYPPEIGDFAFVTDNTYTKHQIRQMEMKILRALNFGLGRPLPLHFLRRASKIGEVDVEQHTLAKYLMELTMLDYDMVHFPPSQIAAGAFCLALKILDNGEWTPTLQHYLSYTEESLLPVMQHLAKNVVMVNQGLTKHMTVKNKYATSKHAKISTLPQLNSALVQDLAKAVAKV

For the compound `COc1ccc(OC)c(CCNC2=NC(=O)/C(=C/c3ccc4ncccc4c3)S2)c1` [Example 5, 2-[2-(2,5-Dimethoxy-phenyl)-ethylamino]-5-[1-quinolin-6-yl-meth-(Z)-ylidene]-thiazol-4-one], the Ki – broadly, the equilibrium dissociation constant of an inhibitor or competing ligand from its target – was 838 nM.
The figure for `COc1ccccc1CNC1=NC(=O)/C(=C/c2ccc3ncccc3c2)S1` [Example 10, 2-(2-Methoxy-benzylamino)-5-[1-quinolin-6-yl-meth-(Z)-ylidene]-thiazol-4-one] is 148 nM; for `O=C1N=C(N[C@@H](CO)Cc2ccccc2)S/C1=C\c1ccc2ncccc2c1` [Example 20, 2-((R)-1-Hydroxymethyl-2-phenyl-ethylamino)-5-[1-quinolin-6-yl-meth-(Z)-ylidene]-thiazol-4-one] it is 604 nM.
Regarding `O=C1N=C(NC(CO)c2cccs2)S/C1=C\c1ccc2ncccc2c1` (stereo not drawn) [Example 25, 2-(2-Hydroxy-1-thiophen-2-yl-ethylamino)-5-[1-quinolin-6-yl-meth-(Z)-ylidene]-thiazol-4-one], the Ki was determined as 596 nM.
The figure for `O=C1N=C(N[C@@H]2c3ccccc3C[C@@H]2O)S/C1=C\c1ccc2ncccc2c1` [Example 30, 2-((1R,2S)-2-Hydroxy-indan-1-ylamino)-5-[1-quinolin-6-yl-meth-(Z)-ylidene]-thiazol-4-one] is 3000 nM; for `O=C1N=C(NCC(c2ccccc2)N2CCOCC2)S/C1=C\c1ccc2ncccc2c1` (stereo not drawn) [Example 35, 2-(2-Morpholin-4-yl-2-phenyl-ethylamino)-5-[1-quinolin-6-yl-meth-(Z)-ylidene]-thiazol-4-one] it is 3300 nM.

The values above are taken from patent US7326786B2, “Thiazolinone unsubstituted quinolines” (Hoffmann-La Roche Inc., priority 2004, dated 2008).
